Test results taken from publication PMC9606187, “Dual HDAC/BRD4 Inhibitors Relieves Neuropathic Pain by Attenuating Inflammatory Response in Microglia After Spared Nerve Injury” (Neurotherapeutics, 2022).

Experiments:
[1] = system: p65 subunit of NF-kB (phosphorylated); experiment: Western blot of lumbar spinal cord, p-NF-kB p65; format: in vivo, mice; settings: SNI ipsilateral side, day 7 and 14
Description: (§1) The lumbar spinal cord was removed 7 and 14 days after surgery and 90 min after the intranasal administration of SUM52, corresponding to the peack of the effect. Samples (n = 4 for groups) were homogenized in a homogenization buffer and processed as previously described. Protein samples (40 µg of protein/sample) were separated on 10% SDS-PAGE and transferred onto nitrocellulose membranes (120 min at 100 V) using standard procedures. Membranes were blocked in PBST (PBS containing 0.1% Tween) containing 5% nonfat dry milk for 120 min. […] Blots were then extensively washed and developed using enhanced chemiluminescence detection system (Pierce, Milan, Italy) and signal intensity (pixels/mm^2) quantified (ImageJ, NIH). […] For each sample, the signal intensity was normalized to that of total protein stained by Ponceau S and the acquired images were quantified using Image Lab software. […]

[2] = biological target: T1, Recombinant Human Bromodomain containing protein 4, bromodomain 2 (BRD4-BD2) (Homo sapiens, UniProt O60885); experiment: AlphaScreen bromodomain binding assay (Reaction Biology), BRD4-2
T1 construct: purchased Reaction Biology (RBC) RD-11–141; host or cells: E. coli
Description: (§2) The reader assay is a binding assay using AlphaScreen technology […] assay and was performed by Reaction Biology (www.reactionbiology.com). The biotinylated peptide binding to the reader domain of His-tagged protein is monitored by the singlet oxygen transfer from the Streptavidin-coated donor beads to the AlphaScreen Ni-chelate acceptor beads.
(§3) Reaction buffer: 50 mM Hepes, pH7.5, 100 mM NaCl, 0.05% CHAPS, 0.1% BSA, and 1% DMSO (the final DMSO concentration may differ depending on compound stock and test concentrations).
(§4) Bromodomain: BRD4-1: RBC Cat# RD-11–140: Recombinant Human Bromodomain containing protein 4, bromodomain 1 (aa 44–170; Genbank Accession # NM_058243), expressed in E. coli with N-terminal His-tag. MW = 17.8 kDa; BRD4-2: RBC Cat# RD-11–141: Recombinant Human Bromodomain containing protein 4, bromodomain 2 (aa 349–460;Genbank Accession # NM_058243), expressed in E. coli with N-terminal His-tag. MW = 15.7 kDa. Ligand (C-term-Biotin): Histone H4 peptide (1–21) K5/8/12/16Ac-Biotin. Detection beads: PerkinElmer: Donor beads: Streptavidin-coated donor beads; Acceptor beads: AlphaScreen Ni acceptor beads.
Reaction procedure: • Deliver 2.5X BRD in wells of reaction plate except No BRD control wells. Add buffer instead. • Deliver compounds in 100% DMSO into the BRD mixture by Acoustic technology (Echo550; nanoliter range). Spin down and pre-incubation for 30 min. • Deliver 5X Ligand. Spin and shake. • Incubate for 30 min at room temperature with gentle shaking. • Deliver 5X donor beads. Spin and shake. • Deliver 5X acceptor beads. Spin and shake. Then gentle shaking in the dark for 60 min. • Alpha measurement (Ex/Em = 680/520–620 nm) in Enspire.

[3] = system: HDAC1; experiment: Western blot of lumbar spinal cord, HDAC1; format: in vivo, mice; settings: SNI ipsilateral side, day 7 and 14 post-surgery, i.n.
Description: as §1

[4] = system: SNI mice; experiment: Observation of sedation or motor dysfunction; format: in vivo; settings: single administration 50 µM i.n.
[5] = system: iNOS (NOS2); experiment: Western blot of lumbar spinal cord, iNOS; format: in vivo, mice; settings: SNI ipsilateral side, day 7 and 14
Description: as §1

[6] = biological target: T2, Recombinant Human Bromodomain containing protein 4, bromodomain 1 (BRD4-BD1) (Homo sapiens, UniProt O60885); experiment: AlphaScreen bromodomain binding assay (Reaction Biology), BRD4-1
T2 construct: bromodomain 1 (aa 44–170); purchased Reaction Biology (RBC) RD-11–140; host or cells: E. coli
Description: as §2, §3, §4
Reaction procedure: • Deliver 2.5X BRD in wells of reaction plate except No BRD control wells. Add buffer instead. • Deliver compounds in 100% DMSO into the BRD mixture by Acoustic technology (Echo550; nanoliter range). […]

Compound: Cc1nnc2n1-c1ccccc1C(c1ccccc1)=N[C@H]2CC(=O)NCCCCCCC(=O)NO [SUM52, (S)-N-hydroxy-7-(2-(1-methyl-6-phenyl-4H-benzo[f][1,2,4]triazolo[4,3-a][1,4]diazepin-4-yl)acetamido)heptanamide]
- phosphorylation of the p65 subunit of NF-kB [1]: robustly reduced by SUM52 up to baseline values
- IC50 [2]: 10.5 nM
- preference between BRD4-BD1 and BRD4-BD2 domains ([2]; BRD4-BD1 vs BRD4-BD2): preferential interaction for BRD4-BD2
- spinal HDAC1 protein expression [3]: restored both epigenetic enzyme levels to control values
- apparent sedation or motor dysfunction [4]: No animal showed apparent sedation or motor dysfunction
- NOS2 (iNOS) expression [5]: reduced NOS2 overactivation
- IC50 [6]: 758 nM
